The target of assay [1] is T1, avidin (Gallus gallus, UniProt P02701).
T1 construct: gene AVD; homotetramer by known biology (monomers A and C mentioned)
The assay is described as follows: isothermal titration calorimetry; co-crystal structure […] Å. Format: binding. (In general: Isothermal titration calorimetry measures the heat released or taken up as one component is titrated into another.)

Assay [2] concerns the target T1, avidin. The assay is described as follows: isothermal titration calorimetry; HABA assay. The format is binding.

pKd: −log10 of the molar value.

T1 sequence (P02701 25-152): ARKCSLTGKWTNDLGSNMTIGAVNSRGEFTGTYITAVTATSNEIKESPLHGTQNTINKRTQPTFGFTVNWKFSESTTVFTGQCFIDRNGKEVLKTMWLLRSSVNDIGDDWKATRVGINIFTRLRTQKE

With `O=C(CCCC[C@@H]1SC[C@@H]2NC(=O)N[C@@H]21)NCCc1cc([N+](=O)[O-])ccc1O` [compound 7], at avidin [1], the negative logarithm of the Kd (pKd) (in general, the Kd on a negative log10 scale, so that one unit is a factor of ten) is 6.65. As for `CC(C)Cn1cnc2c(NC(=O)OCCOC(=O)Oc3ccc([N+](=O)[O-])cc3CCNC(=O)CCCC[C@@H]3SC[C@@H]4NC(=O)N[C@@H]43)nc3ccccc3c21` [compound 8, LDNPC (8)], the pKd on avidin [2] is 6.98.

The values are drawn from article PMC7702144, “A Ligand-Directed Nitrophenol Carbonate for Transient in situ Bioconjugation and Drug Delivery” (ChemMedChem, 2020).
